Experimental data reported in patent US20230201487A1, “NEBULIZER DEVICE OPTIMIZATION FOR IMPROVED AEROSOL PARAMETERS AND USES THEREOF” (Avalyn Pharma Inc., priority 2020, published 2023).
Marks after values point to notes of the source that are not given here.

Columns and labels:
Assay type in all cases: physicochemical
[1] = Respirable aerosol droplet output rate by laser diffraction and gravimetric total output rate, simulated breathing, eFlow nebulizer; settings: for Output rate Benefit, Combined Effect (Vented + XL): vented XL vs. non-vented L
Experimental: As an initial analysis, emitted aerosol saline and pirfenidone aqueous solution formulation droplet size as a function of time was measured using a Helos, Sympatec laser under partially simulated breathing conditions (adult breathing pattern, 500 mL tidal volume, 15 breaths/min with a 1:1 inhalation: exhalation ratio) using a Compas 2 breath simulator. Briefly, twelve investigational PART eFlow® nebulizers (with 6 L and 6 XL aerosol mixing chambers) with a single set of 6 (six) aerosol head class 35 (6 total heads; Table 1) were used in both L (about 49 cc volume aerosol mixing chamber) and XL (about 98 cc volume aerosol mixing chamber) configurations and tested in triplicate with the 8 mL of pirfenidone aqueous solution medicine cup reservoir under atmospheric conditions (vented) and permitting generation of negative pressure (non-vented). The following exemplary replicates were performed: A. Head 1/L/vented, B. Head 1/L/non-vented, C. Head 1/XL/vented, D. Head 1/XL/non-vented, and repeated in the following order: A, B, C, D, A, B, C, D, A, B, C, D. Results are shown in Table 2.
In this analysis, respirable aerosol droplet output rate of saline and pirfenidone formulation was determined by multiplying the respirable fraction (RF; percent emitted aerosol droplets with a diameter less than 5 microns at 20 second increments) by total output rate (TOR; calculated by dividing the total nebulizer weight loss by nebulization duration). Saline was made as 150 mM sodium chloride in water, while the pirfenidone formulation was 12.5 mg/mL pirfenidone in 5 mM citrate buffer, pH 6.0, 150 mM sodium chloride and 0.75 mM sodium saccharin in water. Duration to nebulize 8 mL saline was 8.6 min, 12.6 min, 8.5 min and 12.0 min for vented “L”, non-vented “L”, vented “XL” and non-vented “XL”, respectively. Duration to nebulize 8 mL AP01 was 8.4 min, 12.3 min, 8.3 min and 12.4 min for vented “L”, non-vented “L”, vented “XL” and non-vented “XL”, respectively.

[2] = Aerosol head/assembled device correlation study (TOR, VMD, GSD, nebulization time), 53 aerosol heads; settings: Vented, XL Device
Experimental: To establish an aerosol generator (head) specification meeting the desired delivery of 8 mL aqueous pirfenidone solution in the assembled nebulizer device 1 not exceeding 16 minute delivery time (or an 0.5 mL/min output rate), a correlation study between the head-only performance with 0.9% NaCl (saline) and the assembled nebulizer device 1 (vented, XL configuration) performance with aqueous pirfenidone was conducted. Using heads only, the aerosol characteristics total output rate (TOR), volumetric median diameter (VMD) and geometric standard deviation (GSD) were performed under constant negative pressure (−250 mbar; relative to atmospheric pressure) and under ambient, atmospheric pressure conditions (0 mbar; relative to atmospheric pressure).
These heads were either tested alone using a special apparatus (saline −250 mbar or 0 mbar) or in assembled devices (saline and aqueous pirfenidone; 8 mL vented medicine cup reservoir 3 and XL aerosol mixing chamber 8 configuration).

[3] = Respirable delivered dose during breath simulation, inspiratory filters, HPLC; parameters: Slope of respirable delivered dose: unit not given here; settings: for Total respirable delivered pirfenidone dose over 8 minutes: 8 mL of 12.5 mg/mL
Experimental: For a more clinically relevant comparison, in a second analysis, of aerosol delivery parameters for pirfenidone in solution, the respirable delivered dose (RDD; amount of deposited pirfenidone from aerosol droplets less than 5 microns in diameter) was measured during breath simulation (adult breathing pattern, 500 mL tidal volume, 15 breaths/min with a 1:1 inhalation: exhalation ratio) using a Compas 2 breath simulator was used as follows. Briefly, twelve investigational eFlow® (with 6 L and 6 XL aerosol mixing chambers) with a single set of 6 (six) aerosol head class 35 (6 total heads; Table 1) were used in both (about 49 cc volume) and XL (about 98 cc volume) aerosol mixing chamber configurations and tested in duplicate with the 8 mL medicine cup reservoir under atmospheric conditions (vented) and permitting generation of negative pressure (non-vented) during nebulization. An 8 mL dose (aqueous pirfenidone solution at concentration of 12.5 mg/ml) was loaded into the medicine cup reservoir and nebulization initiated. After 2, 4, 6 and 8 min of nebulization, inspiratory filters were collected and extracted for pirfenidone quantitation using HPLC analysis. A final filter was used after 8 min to collect remaining dose. The following exemplary replicates were performed: A. Head 1/L/vented, B. Head 1/L/non-vented, C. Head 1/XL/vented, D. Head 1/XL/non-vented, and repeated in the following order: A, B, C, D, A, B, C, D. Results are shown in Table 4.

Cc1ccc(=O)n(-c2ccccc2)c1 [pirfenidone, 5-methyl-1-phenyl-2-(1H)-pyridone]
Benefit of aerosol mixing chamber volume on respirable aerosol droplet output rate ([1]; all device configurations regardless of medicine cup pressure): −2 to −5.5%
Output rate Benefit, Maintaining Atmospheric Pressure (Vented) ([1]; vented L vs. non-vented L, 0-2 min): about +19.4%
Output rate Benefit, Maintaining Atmospheric Pressure (Vented) ([1]; vented L vs. non-vented L, 6-8 min): about +17.5%
Output rate Benefit, Combined Effect (Vented + XL) ([1]; 0-2 min): about +17%
Output rate Benefit, Combined Effect (Vented + XL) ([1]; 6-8 min): ~+12.6%
Output rate Benefit, Maintaining Atmospheric Pressure (Vented) ([1]; vented XL vs. non-vented XL, 0-2 min): about +23.8%
Output rate Benefit, Maintaining Atmospheric Pressure (Vented) ([1]; vented XL vs. non-vented XL, 6-8 min): about +17%
Total Output Rate (TOR), Average [2]: 0.782 g/min
Total Output Rate (TOR), Max [2]: 1.049 g/min
Total Output Rate (TOR), Min [2]: 0.382 g/min
Theoretical total delivery rate ([3]; assuming a fifty percent respirable delivered dose, 12.5 mg/mL): 6.25 mg per minute
Slope of respirable delivered dose ([3]; non-vented (NV), L aerosol mixing chamber): −0.16
Respirable Delivered Dose ([3]; non-vented (NV), L aerosol mixing chamber, 0-2 min): 5.75 mg/time increment
Respirable Delivered Dose ([3]; non-vented (NV), L aerosol mixing chamber, 2-4 min): 5.71 mg/time increment
Respirable Delivered Dose ([3]; non-vented (NV), L aerosol mixing chamber, 4-6 min): 5.49 mg/time increment
Respirable Delivered Dose ([3]; non-vented (NV), L aerosol mixing chamber, 6-8 min): 5.27 mg/time increment
Slope of respirable delivered dose ([3]; non-vented (NV), XL aerosol mixing chamber): −0.20
Respirable Delivered Dose ([3]; non-vented (NV), XL aerosol mixing chamber, 0-2 min): 6.50 mg/time increment
Respirable Delivered Dose ([3]; non-vented (NV), XL aerosol mixing chamber, 2-4 min): 6.44 mg/time increment
Respirable Delivered Dose ([3]; non-vented (NV), XL aerosol mixing chamber, 4-6 min): 6.37 mg/time increment
Respirable Delivered Dose ([3]; non-vented (NV), XL aerosol mixing chamber, 6-8 min): 5.87 mg/time increment
RDD Benefit, Increased Aerosol mixing chamber (XL) ([3]; non-vented L vs. non-vented XL, 0-2 min): 13.15^g %
RDD Benefit, Increased Aerosol mixing chamber (XL) ([3]; non-vented L vs. non-vented XL, 6-8 min): 11.28^g %
Respirable delivered dose per minute ([3]; non-vented L, 12.5 mg/mL): 2.78 mg/min
Total respirable delivered pirfenidone dose over 8 minutes ([3]; non-vented L): 22.22 mg
Slope of respirable delivered dose ([3]; vented (V), L aerosol mixing chamber): 0.12
Respirable Delivered Dose ([3]; vented (V), L aerosol mixing chamber, 0-2 min, 8 mL of 12.5 mg/ml): 5.97 mg/time increment
Respirable Delivered Dose ([3]; vented (V), L aerosol mixing chamber, 2-4 min): 6.16 mg/time increment
Respirable Delivered Dose ([3]; vented (V), L aerosol mixing chamber, 4-6 min): 6.33 mg/time increment
Respirable Delivered Dose ([3]; vented (V), L aerosol mixing chamber, 6-8 min): 6.32 mg/time increment
Slope of respirable delivered dose ([3]; vented (V), XL aerosol mixing chamber): 0.13
Respirable Delivered Dose ([3]; vented (V), XL aerosol mixing chamber, 0-2 min): 6.65 mg/time increment
Respirable Delivered Dose ([3]; vented (V), XL aerosol mixing chamber, 2-4 min): 7.07 mg/time increment
Respirable Delivered Dose ([3]; vented (V), XL aerosol mixing chamber, 4-6 min): 7.01 mg/time increment
Respirable Delivered Dose ([3]; vented (V), XL aerosol mixing chamber, 6-8 min): 7.11 mg/time increment
RDD Benefit, Increased Aerosol mixing chamber (XL) ([3]; vented L vs. vented XL, 0-2 min): 11.35^e %
RDD Benefit, Increased Aerosol mixing chamber (XL) ([3]; vented L vs. vented XL, 6-8 min): 12.49^e %
Respirable delivered dose per minute ([3]; vented XL, 12.5 mg/mL): 3.48 mg/min
Total respirable delivered pirfenidone dose over 8 minutes ([3]; vented XL): 27.84 mg
